From US20240376097A1, “BCL-2 Inhibitor” (BeiGene Ltd., priority 2020, published 2024) come the findings set out here.

The target in series [1] is Recombinant human Bcl-2 protein (Homo sapiens (Human), UniProt P10415). In words: Bcl-2 TR-FRET Assay. The series is classed as binding. The gist of the method: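 In pH 7.5 phosphate buffer containing NaCl, EDTA, Tween-20 and BSA, 0.05 nM Bcl-2 saw serially diluted compound for 0.5 h before 0.5 nM FITC-Bak peptide was added. Signal ratio at 520/490 nm after 1 h yielded IC50.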

Series [2] concerns the target recombinant human Bcl-2 D103Y protein (Homo sapiens (Human), UniProt P10415, D103Y). Put plainly: Bcl-2-D103Y Biochemical Assay (TR-FRET). The series is classed as binding. The settings on record: for pIC50: TR-FRET, FITC labeled Bak peptide; for Ratio of Bcl-2 D103Y/Bcl-2 WT: ratio of IC50. The gist of the method: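 Compounds titrated against the Bcl-2 D103Y–ligand interaction; inhibition derived from the TR-FRET emission ratio 490 nm/520 nm after 337 nm excitation. Four-parameter logistic fitting gave IC50.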
On the technique in general: In TR-FRET formats the signal depends on donor and acceptor labels being close together.

Series [3] is described as follows: Metabolic Stability Study, liver microsome incubation (human). The settings on record: human liver microsomes 0.5 mg/mL, 1 μM compound, NADPH; for half-life at 1 μM: NA^# = very stable, beyond the detection limits, read-out: T1/2 (min) Human; for microsomal CLint at 1 μM: read-out: CLint (μL × min^−1 × mg^−1) Human. It is filed as in vitro ADME. The procedure:
(§1) Biological Example: Metabolic Stability Study
(§2) The metabolic stability of some compounds was evaluated by using the liver microsome incubation system in vitro. Briefly, the test compounds at 1 μM, were incubated with 0.5 mg/mL liver microsomes from different species (human, dog, rat and mouse) with an NADPH regenerating system at 37° C. Samples were quenched at three time points (0, 30, 60 min) with organic solvent containing internal standards, and the supernatant was analyzed for parent loss via LC-MS/MS. Midazolam was used as the positive control to validate the incubation system.
(§3) where Cprotein is the microsomal protein concentration in the incubation system.
(§4) The value of CLint and T1/2 of Example F132b in WO2019210818 and representative compounds of the disclosure were determined, and the results are shown in Table 5.
(In general: Liver microsomes are a subcellular fraction often used to study metabolism.)

Series [4] is described as follows: Metabolic Stability Study, liver microsome incubation (mouse). Particulars: mouse liver microsomes 0.5 mg/mL, 1 μM compound, NADPH; for half-life at 1 μM: NA^# = very stable, beyond the detection limits, read-out: T1/2 (min) mouse; for microsomal CLint at 1 μM: read-out: CLint (μL × min^−1 × mg^−1) mouse. The series is classed as in vitro ADME. The procedure:
as §1, §2, §3, §4

The mark [5] stands for this setting: Bcl-2 wild type, TR-FRET, read-out: Biochemical assay (IC50, nM) Bcl-2 WT.
Setting [6] is: wild type Bcl-2, unit inferred, read-out: Bcl-2 WT.

Each structure is given as a SMILES string. pIC50: −log10 of the molar value. Like-named read-outs stand apart in the source and are kept apart here.

Sequence of recombinant human Bcl-2 D103Y protein (P10415 whole entry D103Y): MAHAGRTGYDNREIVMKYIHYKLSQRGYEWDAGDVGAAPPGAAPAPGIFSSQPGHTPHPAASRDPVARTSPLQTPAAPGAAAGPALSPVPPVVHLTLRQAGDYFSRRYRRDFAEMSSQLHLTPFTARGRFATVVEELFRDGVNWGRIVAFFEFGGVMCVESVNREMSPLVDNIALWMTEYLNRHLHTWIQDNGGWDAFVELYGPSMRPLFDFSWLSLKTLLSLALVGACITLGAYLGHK
Sequence of Recombinant human Bcl-2 protein (P10415 whole entry): as the sequence (P10415 whole entry D103Y) above, with Y103D counted along it

Consider `COc1cc(CN2CCN(C3CC4(C3)CN(c3ccc(C(=O)NS(=O)(=O)c5ccc(NC[C@H]6CC[C@](C)(O)CC6)c([N+](=O)[O-])c5)c(Oc5cnc6[nH]cc(F)c6c5)c3)C4)[C@H](c3ccccc3C(C)C)C2)ccc1C` [Example 274, 2-((3-fluoro-1H-pyrrolo[2,3-b]pyridin-5-yl)oxy)-N-((4-((((1r,4r)-4-hydroxy-4-methylcyclohexyl)methyl)amino)-3-nitrophenyl)sulfonyl)-4-(6-((R)-2-(2-isopropylphenyl)-4-(3-methoxy-4-methylbenzyl)piperazin-1-yl)-2-azaspiro[3.3]heptan-2-yl) benzamide], for which, in series [1] (setting [5]), the IC50 turned out to be 0.55 nM. Moreover, in series [1] (setting [6]), the IC50 worked out at 0.55 nM. In series [2], the pIC50 is 9.51 and the “Ratio of Bcl-2 D103Y/Bcl-2 WT” value worked out at 0.57. In series [3], the half-life at 1 μM amounted to 344 min and the microsomal CLint at 1 μM came to 4 µL/min/mg. Besides, in series [4], the half-life at 1 μM was determined as 289 min and the microsomal CLint at 1 μM was found to be 4.8 µL/min/mg.

Regarding `CC(C)c1ccccc1C1CN(Cc2cc(F)cc(F)c2)CCN1C1CC2(CCN(c3ccc(C(=O)NS(=O)(=O)c4ccc(NC[C@H]5CC[C@](C)(O)CC5)c([N+](=O)[O-])c4)c(Oc4cnc5[nH]ccc5c4)c3)CC2)C1` (some centres unmarked) [Example 51, 2-((1H-pyrrolo[2,3-b]pyridin-5-yl)oxy)-4-(2-(4-(3,5-difluorobenzyl)-2-(2-isopropylphenyl)piperazin-1-yl)-7-azaspiro[3.5]nonan-7-yl)-N-((4-((((1r,4r)-4-hydroxy-4-methylcyclohexyl)methyl)amino)-3-nitrophenyl)sulfonyl)benzamide], the IC50 in series [1] (setting [5]) came to 0.42 nM. Further, the IC50 in series [1] (setting [6]) came out at 0.42 nM. Further, in series [2], the pIC50 is 8.82 and the “Ratio of Bcl-2 D103Y/Bcl-2 WT” value is given as 3.5. Also, in series [3], the half-life at 1 μM amounted to 234 min and the microsomal CLint at 1 μM is 5.9 µL/min/mg. Besides, in series [4], the half-life at 1 μM worked out at 306 min and the microsomal CLint at 1 μM was determined as 4.5 µL/min/mg.

Turning to `CC(C)c1ccccc1C1CN(Cc2cccc(F)c2)CCN1C1CC2(CCN(c3ccc(C(=O)NS(=O)(=O)c4ccc(NC[C@H]5CC[C@](C)(O)CC5)c([N+](=O)[O-])c4)c(Oc4cnc5[nH]ccc5c4)c3)CC2)C1` (some centres unmarked) [Example 43, 2-((1H-pyrrolo[2,3-b]pyridin-5-yl)oxy)-4-(2-(4-(3-fluorobenzyl)-2-(2-isopropylphenyl)piperazin-1-yl)-7-azaspiro[3.5]nonan-7-yl)-N-((4-((((1r,4r)-4-hydroxy-4-methylcyclohexyl)methyl)amino)-3-nitrophenyl)sulfonyl)benzamide], the IC50 in series [1] (setting [5]) came out at 0.31 nM. Further, in series [1] (setting [6]), the IC50 was 0.31 nM. In addition, in series [2], the pIC50 was 9.08 and the “Ratio of Bcl-2 D103Y/Bcl-2 WT” value stood at 2.7. Besides, in series [3], the half-life at 1 μM was determined as 108 min and the microsomal CLint at 1 μM came out at 12.8 µL/min/mg. In series [4], the half-life at 1 μM was 193 min and the microsomal CLint at 1 μM was determined as 7.1 µL/min/mg.

Turning to `COc1cc(CN2CCN(C3CC4(C3)CN(c3ccc(C(=O)NS(=O)(=O)c5ccc(NC[C@H]6CC[C@](C)(O)CC6)c([N+](=O)[O-])c5)c(Oc5cnc6[nH]cc(F)c6c5)c3)C4)[C@H](c3ccccc3C(C)C)C2)ccc1N1CCOCC1` [Example 361, 2-((3-fluoro-1H-pyrrolo[2,3-b]pyridin-5-yl)oxy)-N-((4-((((1r,4r)-4-hydroxy-4-methylcyclohexyl)methyl)amino)-3-nitrophenyl)sulfonyl)-4-(6-((R)-2-(2-isopropylphenyl)-4-(3-methoxy-4-morpholinobenzyl)piperazin-1-yl)-2-azaspiro[3.3]heptan-2-yl) benzamide], the IC50 in series [1] (setting [5]) is 0.051 nM; in series [1] (setting [6]), 0.048 nM. In series [2], the pIC50 is 10.10. Also, the “Ratio of Bcl-2 D103Y/Bcl-2 WT” value in series [2] was found to be 1.6. Moreover, the microsomal CLint at 1 μM in series [3] is under 1 µL/min/mg; in series [4], 5.1 µL/min/mg. Also, in series [4], the half-life at 1 μM worked out at 273 min.

Take `CC(C)c1ccccc1C1CN(Cc2ccc(C(F)(F)F)cc2)CCN1C1CC2(CCN(c3ccc(C(=O)NS(=O)(=O)c4ccc(NC[C@H]5CC[C@](C)(O)CC5)c([N+](=O)[O-])c4)c(Oc4cnc5[nH]ccc5c4)c3)CC2)C1` (some centres unmarked) [Example 41, 2-((1H-pyrrolo[2,3-b]pyridin-5-yl)oxy)-N-((4-((((1r,4r)-4-hydroxy-4-methylcyclohexyl)methyl)amino)-3-nitrophenyl)sulfonyl)-4-(2-(2-(2-isopropylphenyl)-4-(4-(trifluoromethyl)benzyl)piperazin-1-yl)-7-azaspiro[3.5]nonan-7-yl) benzamide]: in series [1] (setting [5]), the IC50 was found to be 0.83 nM. For the same molecule, the IC50 in series [1] (setting [6]) was 0.83 nM. Also, in series [2], the pIC50 is 8.51 and the “Ratio of Bcl-2 D103Y/Bcl-2 WT” value amounted to 3.7. In addition, in series [3], the half-life at 1 μM was determined as 997 min and the microsomal CLint at 1 μM was 1.4 µL/min/mg. Also, in series [4], the half-life at 1 μM stood at 683 min and the microsomal CLint at 1 μM was determined as 2 µL/min/mg.

Turning to `CC(C)c1ccccc1C1CN(Cc2ccc(Cl)cc2)CCN1C1CC2(CCN(c3ccc(C(=O)NS(=O)(=O)c4ccc(NC[C@H]5CC[C@](C)(O)CC5)c([N+](=O)[O-])c4)c(Oc4cnc5[nH]ccc5c4)c3)CC2)C1` (some centres unmarked) [Example 29, 2-((1H-pyrrolo[2,3-b]pyridin-5-yl)oxy)-4-(2-(4-(4-chlorobenzyl)-2-(2-isopropylphenyl)piperazin-1-yl)-7-azaspiro[3.5]nonan-7-yl)-N-((4-((((1r,4r)-4-hydroxy-4-methylcyclohexyl)methyl)amino)-3-nitrophenyl)sulfonyl)benzamide], the IC50 in series [1] (setting [5]) came to 0.29 nM. For the same molecule, the IC50 in series [1] (setting [6]) is 0.29 nM. Also, in series [2], the pIC50 is 9.24 and the “Ratio of Bcl-2 D103Y/Bcl-2 WT” value is recorded as 1.9. Also, in series [3], the half-life at 1 μM amounted to 245 min and the microsomal CLint at 1 μM is 5.6 µL/min/mg. Moreover, in series [4], the half-life at 1 μM turned out to be 2360 min and the microsomal CLint at 1 μM was 0.6 µL/min/mg.

Turning to `CC(C)c1ccccc1C1CN(Cc2ccc(F)cc2)CCN1C1CC2(CCN(c3ccc(C(=O)NS(=O)(=O)c4ccc(NC[C@H]5CC[C@](C)(O)CC5)c([N+](=O)[O-])c4)c(Oc4cnc5[nH]ccc5c4)c3)CC2)C1` (some centres unmarked) [Example 28, 2-((1H-pyrrolo[2,3-b]pyridin-5-yl)oxy)-4-(2-(4-(4-fluorobenzyl)-2-(2-isopropylphenyl)piperazin-1-yl)-7-azaspiro[3.5]nonan-7-yl)-N-((4-((((1r,4r)-4-hydroxy-4-methylcyclohexyl)methyl)amino)-3-nitrophenyl)sulfonyl)benzamide], the IC50 in series [1] (setting [5]) and in series [1] (setting [6]) was 0.23 nM each time. The pIC50 in series [2] was 9.47. Further, the “Ratio of Bcl-2 D103Y/Bcl-2 WT” value in series [2] amounted to 1.5. The half-life at 1 μM in series [3] was 135 min; in series [4], 200 min. The microsomal CLint at 1 μM in series [3] turned out to be 10.3 µL/min/mg; in series [4], 6.9 µL/min/mg.

`COc1cc(CN2CCN(C3CC4(C3)CN(c3ccc(C(=O)NS(=O)(=O)c5ccc(NC[C@H]6CC[C@](C)(O)CC6)c([N+](=O)[O-])c5)c(Oc5cnc6[nH]cc(F)c6c5)c3)C4)[C@H](c3ccccc3C(C)C)C2)cc2c1OCCC2` [Example 312, 2-((3-fluoro-1H-pyrrolo[2,3-b]pyridin-5-yl)oxy)-N-((4-((((1r,4r)-4-hydroxy-4-methylcyclohexyl)methyl)amino)-3-nitrophenyl)sulfonyl)-4-(6-((R)-2-(2-isopropylphenyl)-4-((8-methoxychroman-6-yl)methyl)piperazin-1-yl)-2-azaspiro[3.3]heptan-2-yl)benzamide]: in series [1] (setting [5]), the IC50 worked out at 0.094 nM. In series [1] (setting [6]), the IC50 is 0.08 nM. Besides, in series [2], the pIC50 is 10.09 and the “Ratio of Bcl-2 D103Y/Bcl-2 WT” value worked out at 1.0. Moreover, in series [3], the half-life at 1 μM was 423 min and the microsomal CLint at 1 μM is 3.3 µL/min/mg. In addition, in series [4], the half-life at 1 μM came out at 362 min and the microsomal CLint at 1 μM worked out at 3.8 µL/min/mg.

Turning to `COc1ccc(CN2CCN(C3CC4(CCN(c5ccc(C(=O)NS(=O)(=O)c6ccc(NC[C@H]7CC[C@](C)(O)CC7)c([N+](=O)[O-])c6)c(Oc6cnc7[nH]ccc7c6)c5)CC4)C3)C(c3ccccc3C(C)C)C2)c(OC)c1` (some centres unmarked) [Example 48], the IC50 in series [1] (setting [5]) and in series [1] (setting [6]) was 0.072 nM each time. The pIC50 in series [2] is 9.70. The “Ratio of Bcl-2 D103Y/Bcl-2 WT” value in series [2] was determined as 2.8. The half-life at 1 μM in series [3] was found to be 256 min; in series [4], 323 min. Further, the microsomal CLint at 1 μM stood at 5.4 µL/min/mg in series [3] and 4.3 µL/min/mg in series [4].

The term pIC50 denotes the negative decadic logarithm of the IC50, by convention in mol/L.
